Paper PMC6540285, “Evaluation of Protein Kinase Inhibitors with PLK4 Cross-Over Potential in a Pre-Clinical Model of Cancer” (International Journal of Molecular Sciences, 2019)

Legend:
IRAK3 = IRAK3 (Homo sapiens, UniProt Q9Y616); assay: SelectScreen kinase profiling, LanthaScreen binding; settings: IRAK3, 10 µM
CHUK (IKK alpha) = CHUK (IKK alpha) (Homo sapiens, UniProt O15111); assay: SelectScreen kinase profiling, Adapta; format: biochemical
LATS2 = LATS2 (Homo sapiens, UniProt Q9NRM7); assay: SelectScreen kinase profiling, LanthaScreen binding; settings: LATS2, 10 µM
PRKX = PRKX (Homo sapiens, UniProt P51817); assay: SelectScreen kinase profiling, ZLYTE; format: biochemical
MAP2K2 (MEK2) = MAP2K2 (MEK2) (Homo sapiens, UniProt P36507); assay: SelectScreen kinase profiling, ZLYTE; format: biochemical
CHEK2 (CHK2) = CHEK2 (CHK2) (Homo sapiens, UniProt O96017); assay: SelectScreen kinase profiling, ZLYTE; format: biochemical
KIT = KIT (Homo sapiens, UniProt P10721); assay: SelectScreen kinase profiling, ZLYTE; format: biochemical
MKNK1 (MNK1) = MKNK1 (MNK1) (Homo sapiens, UniProt Q9BUB5); assay: SelectScreen kinase profiling, ZLYTE; format: biochemical
MAPKAPK3 = MAPKAPK3 (Homo sapiens, UniProt Q16644); assay: SelectScreen kinase profiling, ZLYTE; format: biochemical; settings: MAPKAPK3, 10 µM
Description: (§1) Kinase Technology % Inhibition Avg Kinase Technology % Inhibition Avg
(§2) STK23 (MSSK1) ZLYTE 59 TGFBR1 (ALK5) LanthaScreen 85
(§3) STK24 (MST3) ZLYTE 85 TGFBR2 LanthaScreen 77
(§4) STK25 (YSK1) ZLYTE 45 TLK1 LanthaScreen 4
(§5) STK3 (MST2) ZLYTE 77 TLK2 LanthaScreen 33
(§6) STK32B (YANK2) LanthaScreen 61 TNIK LanthaScreen 15
(§7) STK32C (YANK3) LanthaScreen 62 TNK1 ZLYTE 94
(§8) STK33 LanthaScreen 81 TNK2 (ACK) LanthaScreen 71
(§9) STK38 (NDR) LanthaScreen 85 TTK LanthaScreen 54
(§10) STK38L (NDR2) LanthaScreen 59 TXK ZLYTE 94
(§11) STK39 (STLK3) LanthaScreen 38 TYK2 ZLYTE 99
(§12) STK4 (MST1) ZLYTE 93 TYRO3 (RSE) ZLYTE 92
(§13) SYK ZLYTE 98 ULK1 LanthaScreen 80
(§14) TAOK1 LanthaScreen 82 ULK2 LanthaScreen 56
(§15) TAOK2 (TAO1) ZLYTE 87 ULK3 LanthaScreen 5
(§16) TAOK3 (JIK) LanthaScreen 25 VRK2 LanthaScreen 32
(§17) TBK1 ZLYTE 99 WEE1 LanthaScreen 75
(§18) TEC LanthaScreen -9 WNK1 LanthaScreen 2
(§19) TEK (Tie2) ZLYTE 99 WNK2 LanthaScreen 1
(§20) TEK (TIE2) R849W LanthaScreen -5 WNK3 LanthaScreen 7
(§21) TEK (TIE2) Y897S ZLYTE 80 ZAK LanthaScreen 77
(§22) TESK1 LanthaScreen 37 ZAP70 ZLYTE 24
(§23) cleavage (Thermo Fisher Scientific, USA)

INSRR (IRR) = INSRR (IRR) (Homo sapiens, UniProt P14616); assay: SelectScreen kinase profiling, ZLYTE; format: biochemical
Description: as §1, §2, §3, §4, §5, §6, §7, §8, §9, §10, §11, §12, §13, §14, §15, §16, §17, §18, §19, §20, §21, §22, §23

BTK = BTK (Homo sapiens, UniProt Q06187); assay: SelectScreen kinase profiling, ZLYTE; format: biochemical
Description: as §1, §2, §3, §4, §5, §6, §7, §8, §9, §10, §11, §12, §13, §14, §15, §16, §17, §18, §19, §20, §21, §22, §23

SRPK1 = SRPK1 (Homo sapiens, UniProt Q96SB4); assay: SelectScreen kinase profiling, ZLYTE; format: biochemical; settings: SRPK1, 10 µM
Description: as §1, §2, §3, §4, §5, §6, §7, §8, §9, §10, §11, §12, §13, §14, §15, §16, §17, §18, §19, §20, §21, §22, §23

KSR2 = KSR2 (Homo sapiens, UniProt Q6VAB6); assay: SelectScreen kinase profiling, ZLYTE; format: biochemical; settings: KSR2, 10 µM
Description: as §1, §2, §3, §4, §5, §6, §7, §8, §9, §10, §11, §12, §13, §14, §15, §16, §17, §18, §19, §20, §21, §22, §23

PLK2 = PLK2 (Homo sapiens, UniProt Q9NYY3); assay: SelectScreen kinase profiling, ZLYTE; format: biochemical; settings: PLK2, 10 µM
Description: as §1, §2, §3, §4, §5, §6, §7, §8, §9, §10, §11, §12, §13, §14, §15, §16, §17, §18, §19, §20, §21, §22, §23

RPS6KA3 (RSK2) = RPS6KA3 (RSK2) (Homo sapiens, UniProt P51812); assay: SelectScreen kinase profiling, ZLYTE; format: biochemical
Description: as §1, §2, §3, §4, §5, §6, §7, §8, §9, §10, §11, §12, §13, §14, §15, §16, §17, §18, §19, §20, §21, §22, §23

PKN1 (PRK1) = PKN1 (PRK1) (Homo sapiens, UniProt Q16512); assay: SelectScreen kinase profiling, ZLYTE; format: biochemical
Description: as §1, §2, §3, §4, §5, §6, §7, §8, §9, §10, §11, §12, §13, §14, §15, §16, §17, §18, §19, §20, §21, §22, §23

NEK6 = NEK6 (Homo sapiens, UniProt Q9HC98); assay: SelectScreen kinase profiling, ZLYTE; format: biochemical; settings: NEK6, 10 µM
Description: as §1, §2, §3, §4, §5, §6, §7, §8, §9, §10, §11, §12, §13, §14, §15, §16, §17, §18, §19, §20, §21, §22, §23

DYRK4 = DYRK4 (Homo sapiens, UniProt Q9NR20); assay: SelectScreen kinase profiling, ZLYTE; format: biochemical; settings: DYRK4, 10 µM
Description: as §1, §2, §3, §4, §5, §6, §7, §8, §9, §10, §11, §12, §13, §14, §15, §16, §17, §18, §19, §20, §21, §22, §23

PTK6 (Brk) = PTK6 (Brk) (Homo sapiens, UniProt Q13882); assay: SelectScreen kinase profiling, ZLYTE; format: biochemical
Description: as §1, §2, §3, §4, §5, §6, §7, §8, §9, §10, §11, §12, §13, §14, §15, §16, §17, §18, §19, §20, §21, §22, §23

PTK2 (FAK) = PTK2 (FAK) (Homo sapiens, UniProt Q05397); assay: SelectScreen kinase profiling, ZLYTE; format: biochemical
Description: as §1, §2, §3, §4, §5, §6, §7, §8, §9, §10, §11, §12, §13, §14, §15, §16, §17, §18, §19, §20, §21, §22, §23

MST1R (RON) = MST1R (RON) (Homo sapiens, UniProt Q04912); assay: SelectScreen kinase profiling, ZLYTE; format: biochemical
Description: as §1, §2, §3, §4, §5, §6, §7, §8, §9, §10, §11, §12, §13, §14, §15, §16, §17, §18, §19, §20, §21, §22, §23

INSR = INSR (Homo sapiens, UniProt P06213); assay: SelectScreen kinase profiling, ZLYTE; format: biochemical
Description: as §1, §2, §3, §4, §5, §6, §7, §8, §9, §10, §11, §12, §13, §14, §15, §16, §17, §18, §19, §20, §21, §22, §23

CSNK1E (CK1 epsilon) = CSNK1E (CK1 epsilon) (Homo sapiens, UniProt P49674); assay: SelectScreen kinase profiling, ZLYTE; format: biochemical
Description: as §1, §2, §3, §4, §5, §6, §7, §8, §9, §10, §11, §12, §13, §14, §15, §16, §17, §18, §19, §20, §21, §22, §23

GRK5 = GRK5 (Homo sapiens, UniProt P34947); assay: SelectScreen kinase profiling, ZLYTE; format: biochemical; settings: GRK5, 10 µM
Description: as §1, §2, §3, §4, §5, §6, §7, §8, §9, §10, §11, §12, §13, §14, §15, §16, §17, §18, §19, §20, §21, §22, §23

STK22D (TSSK1) = STK22D (TSSK1) (Homo sapiens, UniProt Q9BXA7); assay: SelectScreen kinase profiling, ZLYTE; format: biochemical
Description: as §1, §2, §3, §4, §5, §6, §7, §8, §9, §10, §11, §12, §13, §14, §15, §16, §17, §18, §19, §20, §21, §22, §23

PDGFRA T674I = PDGFRA T674I (Homo sapiens, UniProt P16234, T674I); assay: SelectScreen kinase profiling, ZLYTE; format: biochemical
Description: as §1, §2, §3, §4, §5, §6, §7, §8, §9, §10, §11, §12, §13, §14, §15, §16, §17, §18, §19, §20, §21, §22, §23

PAK7 (KIAA1264) = PAK7 (KIAA1264) (Homo sapiens, UniProt Q9P286); assay: SelectScreen kinase profiling, ZLYTE; format: biochemical
Description: as §1, §2, §3, §4, §5, §6, §7, §8, §9, §10, §11, §12, §13, §14, §15, §16, §17, §18, §19, §20, §21, §22, §23

RAF1 (cRAF) Y340D Y341D = RAF1 (cRAF) Y340D Y341D (Homo sapiens, UniProt P04049, Y340D/Y341D); assay: SelectScreen kinase profiling, ZLYTE; format: biochemical
Description: as §1, §2, §3, §4, §5, §6, §7, §8, §9, §10, §11, §12, §13, §14, §15, §16, §17, §18, §19, §20, §21, §22, §23

CDC42 BPG (MRCKG) = CDC42 BPG (MRCKG) (Homo sapiens, UniProt Q6DT37); assay: SelectScreen kinase profiling, ZLYTE; format: biochemical
CDK11 (Inactive) = CDK11 (Inactive) (Homo sapiens, UniProt Q9BWU1); assay: SelectScreen kinase profiling, LanthaScreen binding
NLK = NLK (Homo sapiens, UniProt Q9UBE8); assay: as above
AMPK (A2/B2/G3) = AMPK (A2/B2/G3) (Homo sapiens, UniProt P54646); assay: SelectScreen kinase profiling, ZLYTE; format: biochemical
AMPK (A2/B2/G3), sequence (P54646 whole entry): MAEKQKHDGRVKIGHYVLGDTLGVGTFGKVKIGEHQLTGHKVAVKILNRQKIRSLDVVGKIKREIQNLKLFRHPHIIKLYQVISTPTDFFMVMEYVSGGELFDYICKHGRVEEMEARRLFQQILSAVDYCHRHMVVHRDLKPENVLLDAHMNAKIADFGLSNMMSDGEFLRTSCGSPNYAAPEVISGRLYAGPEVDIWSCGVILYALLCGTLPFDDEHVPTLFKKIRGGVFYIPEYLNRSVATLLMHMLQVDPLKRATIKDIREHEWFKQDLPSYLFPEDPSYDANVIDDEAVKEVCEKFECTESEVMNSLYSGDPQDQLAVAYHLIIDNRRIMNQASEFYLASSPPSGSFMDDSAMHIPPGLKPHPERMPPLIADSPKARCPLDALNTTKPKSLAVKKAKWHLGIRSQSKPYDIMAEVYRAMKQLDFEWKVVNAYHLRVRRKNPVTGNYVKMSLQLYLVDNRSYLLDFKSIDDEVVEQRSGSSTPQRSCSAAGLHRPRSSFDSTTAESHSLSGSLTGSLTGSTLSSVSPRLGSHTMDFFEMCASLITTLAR
AMPK (A2/B2/G3), sequence (O43741 whole entry partner): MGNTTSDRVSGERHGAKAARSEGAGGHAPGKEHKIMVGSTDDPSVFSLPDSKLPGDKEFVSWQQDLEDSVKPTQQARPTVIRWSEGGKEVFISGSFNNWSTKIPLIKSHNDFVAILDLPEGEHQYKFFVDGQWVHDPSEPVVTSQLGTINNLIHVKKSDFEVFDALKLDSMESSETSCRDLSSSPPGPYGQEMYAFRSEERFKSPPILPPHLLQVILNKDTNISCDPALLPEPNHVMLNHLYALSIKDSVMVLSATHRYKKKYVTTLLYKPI
AMPK (A2/B2/G3), sequence (Q9UGI9 whole entry partner): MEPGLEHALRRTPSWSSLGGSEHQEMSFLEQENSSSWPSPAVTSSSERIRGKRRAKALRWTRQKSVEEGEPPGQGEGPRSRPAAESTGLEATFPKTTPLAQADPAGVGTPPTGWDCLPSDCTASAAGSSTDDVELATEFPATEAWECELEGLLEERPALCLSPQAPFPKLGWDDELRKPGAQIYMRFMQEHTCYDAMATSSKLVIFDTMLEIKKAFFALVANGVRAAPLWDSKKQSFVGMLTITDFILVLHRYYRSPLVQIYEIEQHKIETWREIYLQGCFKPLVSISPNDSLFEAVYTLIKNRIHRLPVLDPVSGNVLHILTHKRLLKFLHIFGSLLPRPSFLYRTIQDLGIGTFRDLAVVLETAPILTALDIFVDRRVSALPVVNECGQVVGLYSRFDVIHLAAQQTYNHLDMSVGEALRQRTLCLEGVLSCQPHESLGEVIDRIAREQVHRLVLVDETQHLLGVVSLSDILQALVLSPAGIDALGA

PTK2 (FAK), sequence (Q05397 whole entry): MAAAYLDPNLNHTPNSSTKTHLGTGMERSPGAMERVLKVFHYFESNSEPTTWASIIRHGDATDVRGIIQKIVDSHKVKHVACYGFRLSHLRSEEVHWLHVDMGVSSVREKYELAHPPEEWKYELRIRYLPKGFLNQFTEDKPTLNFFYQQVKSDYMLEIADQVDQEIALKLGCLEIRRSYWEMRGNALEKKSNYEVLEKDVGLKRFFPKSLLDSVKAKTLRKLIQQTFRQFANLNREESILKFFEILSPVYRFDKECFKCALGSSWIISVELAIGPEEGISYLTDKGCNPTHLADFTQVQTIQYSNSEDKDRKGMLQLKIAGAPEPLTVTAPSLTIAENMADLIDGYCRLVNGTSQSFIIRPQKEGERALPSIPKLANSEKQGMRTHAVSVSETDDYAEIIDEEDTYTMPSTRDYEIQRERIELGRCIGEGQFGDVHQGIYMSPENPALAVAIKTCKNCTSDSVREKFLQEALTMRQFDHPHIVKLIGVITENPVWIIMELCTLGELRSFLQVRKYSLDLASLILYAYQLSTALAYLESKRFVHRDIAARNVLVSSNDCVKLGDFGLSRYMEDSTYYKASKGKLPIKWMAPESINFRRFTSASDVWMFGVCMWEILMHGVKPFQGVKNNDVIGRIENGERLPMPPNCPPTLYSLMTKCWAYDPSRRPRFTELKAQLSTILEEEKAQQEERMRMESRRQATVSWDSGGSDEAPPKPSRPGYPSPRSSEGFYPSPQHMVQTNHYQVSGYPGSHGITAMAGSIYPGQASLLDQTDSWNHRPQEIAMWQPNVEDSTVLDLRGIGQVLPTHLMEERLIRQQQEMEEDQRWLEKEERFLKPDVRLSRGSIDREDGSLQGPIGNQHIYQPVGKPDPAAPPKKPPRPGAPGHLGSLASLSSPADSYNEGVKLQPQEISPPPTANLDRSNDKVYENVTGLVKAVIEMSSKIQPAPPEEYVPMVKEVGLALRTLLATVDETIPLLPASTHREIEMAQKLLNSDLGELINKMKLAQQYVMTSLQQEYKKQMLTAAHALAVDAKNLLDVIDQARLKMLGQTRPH
RPS6KA3 (RSK2), sequence (P51812 whole entry): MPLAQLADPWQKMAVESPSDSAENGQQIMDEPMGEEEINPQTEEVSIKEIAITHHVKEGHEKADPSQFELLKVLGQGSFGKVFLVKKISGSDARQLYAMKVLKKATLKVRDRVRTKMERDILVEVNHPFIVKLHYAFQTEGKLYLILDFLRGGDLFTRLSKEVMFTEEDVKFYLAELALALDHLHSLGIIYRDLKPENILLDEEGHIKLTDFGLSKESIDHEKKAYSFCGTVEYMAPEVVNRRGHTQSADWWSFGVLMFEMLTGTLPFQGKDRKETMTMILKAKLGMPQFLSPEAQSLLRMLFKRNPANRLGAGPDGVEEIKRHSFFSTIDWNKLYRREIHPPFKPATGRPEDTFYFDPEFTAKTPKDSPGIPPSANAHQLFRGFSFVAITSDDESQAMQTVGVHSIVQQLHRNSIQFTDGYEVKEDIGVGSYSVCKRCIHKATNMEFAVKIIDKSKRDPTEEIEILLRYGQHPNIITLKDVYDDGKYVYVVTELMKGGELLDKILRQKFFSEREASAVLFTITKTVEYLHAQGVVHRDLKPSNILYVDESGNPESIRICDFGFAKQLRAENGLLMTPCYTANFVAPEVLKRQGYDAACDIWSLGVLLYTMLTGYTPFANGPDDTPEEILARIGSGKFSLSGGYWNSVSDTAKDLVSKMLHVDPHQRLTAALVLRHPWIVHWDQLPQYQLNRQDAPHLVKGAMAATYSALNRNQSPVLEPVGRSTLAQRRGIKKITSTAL
CHEK2 (CHK2), sequence (O96017 whole entry): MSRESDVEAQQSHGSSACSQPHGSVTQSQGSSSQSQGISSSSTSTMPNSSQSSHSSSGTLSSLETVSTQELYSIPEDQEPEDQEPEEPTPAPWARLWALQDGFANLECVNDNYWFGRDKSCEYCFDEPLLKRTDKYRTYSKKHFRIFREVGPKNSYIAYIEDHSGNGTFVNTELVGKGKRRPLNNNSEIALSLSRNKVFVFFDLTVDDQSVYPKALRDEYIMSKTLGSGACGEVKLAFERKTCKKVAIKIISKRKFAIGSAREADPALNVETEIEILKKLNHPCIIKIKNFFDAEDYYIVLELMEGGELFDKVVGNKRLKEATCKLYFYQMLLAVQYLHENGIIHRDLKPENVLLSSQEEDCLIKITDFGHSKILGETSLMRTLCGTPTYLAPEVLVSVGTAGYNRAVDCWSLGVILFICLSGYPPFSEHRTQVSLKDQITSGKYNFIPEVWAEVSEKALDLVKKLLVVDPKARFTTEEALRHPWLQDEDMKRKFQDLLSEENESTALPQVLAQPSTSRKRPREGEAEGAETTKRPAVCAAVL
NLK, sequence (Q9UBE8 whole entry): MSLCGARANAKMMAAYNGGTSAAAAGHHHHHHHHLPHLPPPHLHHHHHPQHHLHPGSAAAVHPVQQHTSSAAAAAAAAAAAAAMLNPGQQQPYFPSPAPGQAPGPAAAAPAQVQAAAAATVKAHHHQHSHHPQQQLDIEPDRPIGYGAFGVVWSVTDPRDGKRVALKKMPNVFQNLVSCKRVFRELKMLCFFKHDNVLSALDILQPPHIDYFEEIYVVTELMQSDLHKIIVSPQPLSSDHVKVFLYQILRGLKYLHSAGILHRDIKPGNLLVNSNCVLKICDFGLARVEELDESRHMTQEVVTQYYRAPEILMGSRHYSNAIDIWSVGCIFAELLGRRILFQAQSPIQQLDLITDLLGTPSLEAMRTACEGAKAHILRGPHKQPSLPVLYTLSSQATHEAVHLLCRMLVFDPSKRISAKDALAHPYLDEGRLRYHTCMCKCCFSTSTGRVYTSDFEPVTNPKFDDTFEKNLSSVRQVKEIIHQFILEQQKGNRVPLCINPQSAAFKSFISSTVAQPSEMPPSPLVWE
RAF1 (cRAF) Y340D Y341D, sequence (P04049 whole entry Y340D/Y341D): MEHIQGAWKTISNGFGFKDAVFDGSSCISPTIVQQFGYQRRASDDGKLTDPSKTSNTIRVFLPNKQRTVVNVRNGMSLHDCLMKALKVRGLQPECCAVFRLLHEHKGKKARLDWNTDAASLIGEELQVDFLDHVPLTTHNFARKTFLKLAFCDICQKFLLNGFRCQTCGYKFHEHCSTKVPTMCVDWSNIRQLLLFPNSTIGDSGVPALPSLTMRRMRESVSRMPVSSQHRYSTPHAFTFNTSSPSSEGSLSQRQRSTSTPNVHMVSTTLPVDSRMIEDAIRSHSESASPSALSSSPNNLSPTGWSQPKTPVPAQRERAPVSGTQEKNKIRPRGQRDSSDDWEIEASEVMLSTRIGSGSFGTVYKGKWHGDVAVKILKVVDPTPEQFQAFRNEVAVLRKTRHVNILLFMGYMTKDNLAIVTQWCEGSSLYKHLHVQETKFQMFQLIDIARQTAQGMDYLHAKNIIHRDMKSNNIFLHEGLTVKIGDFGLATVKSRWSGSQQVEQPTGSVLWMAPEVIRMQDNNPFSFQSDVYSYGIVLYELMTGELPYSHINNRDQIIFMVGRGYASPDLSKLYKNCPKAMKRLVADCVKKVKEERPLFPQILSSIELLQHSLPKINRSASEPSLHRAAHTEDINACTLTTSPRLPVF

O=C(c1ccc(/C=C/c2n[nH]c3ccccc23)cc1)N1CCNCC1 [KW-2449]
inhibition at 10 µM (IRAK3): 31%
inhibition at 10 µM (CHUK (IKK alpha)): 96%
inhibition at 10 µM (LATS2): 68%
inhibition at 10 µM (PRKX): 96%
inhibition at 10 µM (MAP2K2 (MEK2)): 75%
inhibition at 10 µM (CHEK2 (CHK2)): 100%
inhibition at 10 µM (KIT): 91%
inhibition at 10 µM (MKNK1 (MNK1)): 52%
inhibition at 10 µM (MAPKAPK3): 4%
inhibition at 10 µM (INSRR (IRR)): 96%
inhibition at 10 µM (BTK): 99%
inhibition at 10 µM (SRPK1): 31%
inhibition at 10 µM (KSR2): 5%
inhibition at 10 µM (PLK2): 35%
inhibition at 10 µM (RPS6KA3 (RSK2)): 95%
inhibition at 10 µM (PKN1 (PRK1)): 72%
inhibition at 10 µM (NEK6): 10%
inhibition at 10 µM (DYRK4): 16%
inhibition at 10 µM (PTK6 (Brk)): 71%
inhibition at 10 µM (PTK2 (FAK)): 95%
inhibition at 10 µM (MST1R (RON)): 97%
inhibition at 10 µM (INSR): 96%
inhibition at 10 µM (CSNK1E (CK1 epsilon)): 67%
inhibition at 10 µM (GRK5): 17%
inhibition at 10 µM (STK22D (TSSK1)): 99%
inhibition at 10 µM (PDGFRA T674I): 97%
inhibition at 10 µM (PAK7 (KIAA1264)): 98%
inhibition at 10 µM (RAF1 (cRAF) Y340D Y341D): 74%
inhibition at 10 µM (CDC42 BPG (MRCKG)): 68%
inhibition at 10 µM (CDK11 (Inactive)): 29%
inhibition at 10 µM (NLK): -2%
inhibition at 10 µM (AMPK (A2/B2/G3)): 98%
